Source: patent US20090275594A1, “3-HYDRAZONE PIPERAZINYL RIFAMYCIN DERIVATIVES USEFUL AS ANTIMICROBIAL AGENTS” (priority 2008, published 2009)
Values after ≈ are worked out from the molar mass of the structure shown.

What was measured:
Type in all cases: cell-based
Conditions in all cases: cation adjusted Mueller-Hinton broth, 35° C., 16-20 hours
[1] = system: Staphylococcus aureus OC4172; assay: In vitro antibacterial activity, microdilution broth MIC (NCCLS M7-A4), strain D
Description: (§1) Minimum inhibitory concentration (MIC) is an indicator of in vitro antibacterial activity. […] The in vitro antimicrobial activity of representative compounds of the present invention was determined by the microdilution broth method following the test method from the National Committee for Clinical Laboratory Standards (NCCLS). This method is described in the NCCLS Document M7-A4, Vol. 17, No. 2, “Methods for Dilution Antimicrobial Susceptibility Test for Bacteria that Grow Aerobically—Fourth Edition”, which is incorporated herein by reference.
(§2) In this method two-fold serial dilutions of drug in cation adjusted Mueller-Hinton broth were added to wells in microdilution trays. The test organisms were prepared by adjusting the turbidity of actively growing broth cultures so that the final concentration of test organism after it is added to the wells was approximately 5×10^4 CFU/well. Following inoculation of the microdilution trays, the trays were incubated at 35° C. for 16-20 hours and then read. The amount of growth in the wells containing the test compound was compared with the amount of growth in the growth-control wells (no test compound) used in each tray.

[2] = system: Staphylococcus aureus ATCC 29213; assay: In vitro antibacterial activity, microdilution broth MIC (NCCLS M7-A4), strain B
Description: as §1, §2

[3] = system: Enterococcus faecium OC 3312 vancomycin-resistant; assay: In vitro antibacterial activity, microdilution broth MIC (NCCLS M7-A4), strain A
Description: as §1, §2

[4] = system: Methicillin-resistant Staphylococcus aureus OC 3726 COL; assay: In vitro antibacterial activity, microdilution broth MIC (NCCLS M7-A4), strain C
Description: as §1, §2

Row | Structure (SMILES) | MIC (μg/mL) D Strain [1] | MIC (μg/mL) B Strain [2] | MIC (μg/mL) A Strain [3] [µg/mL] | MIC (μg/mL) C Strain [4]
1 | COC1C=COC2(C)Oc3c(C)c(O)c4c(O)c(c(C=NN5CCN(Cc6cc(-c7ccccc7)no6)CC5)c(O)c4c3C2=O)NC(=O)C(C)=CC=CC(C)C(O)C(C)C(O)C(C)C(OC(C)=O)C1C (stereo not drawn) [Compound 1] | 0.12 µg/mL (≈ 0.124 µM) | 0.12 µg/mL (≈ 0.124 µM) | 0.25 (≈ 0.259 µM) | 0.12 µg/mL (≈ 0.124 µM)
2 | COC1C=COC2(C)Oc3c(C)c(O)c4c(O)c(c(C=NN5CCN(Cc6cc(-c7ccc(Cl)cc7)no6)CC5)c(O)c4c3C2=O)NC(=O)C(C)=CC=CC(C)C(O)C(C)C(O)C(C)C(OC(C)=O)C1C (stereo not drawn) [Compound 2] | 0.5 µg/mL (≈ 0.5 µM) | 0.5 µg/mL (≈ 0.5 µM) | 1 (≈ 0.999 µM) | 0.5 µg/mL (≈ 0.5 µM)
3 | COC1C=COC2(C)Oc3c(C)c(O)c4c(O)c(c(C=NN5CCN(Cc6cc(-c7cccc(Cl)c7)no6)CC5)c(O)c4c3C2=O)NC(=O)C(C)=CC=CC(C)C(O)C(C)C(O)C(C)C(OC(C)=O)C1C (stereo not drawn) [Compound 3] | 0.5 µg/mL (≈ 0.5 µM) | 0.5 µg/mL (≈ 0.5 µM) | 0.5 (≈ 0.5 µM) | 0.5 µg/mL (≈ 0.5 µM)
4 | COC1C=COC2(C)Oc3c(C)c(O)c4c(O)c(c(C=NN5CCN(Cc6cc(-c7ccc(Cl)cc7Cl)no6)CC5)c(O)c4c3C2=O)NC(=O)C(C)=CC=CC(C)C(O)C(C)C(O)C(C)C(OC(C)=O)C1C (stereo not drawn) [Compound 4] | 1 µg/mL (≈ 0.966 µM) | 1 µg/mL (≈ 0.966 µM) | 1 (≈ 0.966 µM) | 0.5 µg/mL (≈ 0.483 µM)
5 | COC1C=COC2(C)Oc3c(C)c(O)c4c(O)c(c(C=NN5CCN(Cc6cc(-c7ccc(F)cc7)no6)CC5)c(O)c4c3C2=O)NC(=O)C(C)=CC=CC(C)C(O)C(C)C(O)C(C)C(OC(C)=O)C1C (stereo not drawn) [Compound 5] | 0.12 µg/mL (≈ 0.122 µM) | 0.25 µg/mL (≈ 0.254 µM) | 0.25 (≈ 0.254 µM) | 0.12 µg/mL (≈ 0.122 µM)
6 | COC1C=COC2(C)Oc3c(C)c(O)c4c(O)c(c(C=NN5CCN(Cc6cc(-c7ccc(F)c(F)c7)no6)CC5)c(O)c4c3C2=O)NC(=O)C(C)=CC=CC(C)C(O)C(C)C(O)C(C)C(OC(C)=O)C1C (stereo not drawn) [Compound 6] | 0.25 µg/mL (≈ 0.249 µM) | 0.5 µg/mL (≈ 0.499 µM) | 0.5 (≈ 0.499 µM) | 0.25 µg/mL (≈ 0.249 µM)
7 | COC1C=COC2(C)Oc3c(C)c(O)c4c(O)c(c(C=NN5CCN(Cc6cc(-c7ccc(C(F)(F)F)cc7)no6)CC5)c(O)c4c3C2=O)NC(=O)C(C)=CC=CC(C)C(O)C(C)C(O)C(C)C(OC(C)=O)C1C (stereo not drawn) [Compound 7] | 0.12 µg/mL (≈ 0.116 µM) | 0.5 µg/mL (≈ 0.484 µM) | 1 (≈ 0.967 µM) | 0.25 µg/mL (≈ 0.242 µM)
8 | COC1C=COC2(C)Oc3c(C)c(O)c4c(O)c(c(C=NN5CCN(Cc6cc(-c7ccc(C)cc7)no6)CC5)c(O)c4c3C2=O)NC(=O)C(C)=CC=CC(C)C(O)C(C)C(O)C(C)C(OC(C)=O)C1C (stereo not drawn) [Compound 8] | 0.5 µg/mL (≈ 0.51 µM) | 0.5 µg/mL (≈ 0.51 µM) | 0.5 (≈ 0.51 µM) | 0.5 µg/mL (≈ 0.51 µM)
9 | COc1ccc(-c2cc(CN3CCN(N=Cc4c5c(O)c6c(O)c(C)c7c(c6c4O)C(=O)C(C)(OC=CC(OC)C(C)C(OC(C)=O)C(C)C(O)C(C)C(O)C(C)C=CC=C(C)C(=O)N5)O7)CC3)on2)cc1 (stereo not drawn) [Compound 9] | 0.12 µg/mL (≈ 0.12 µM) | 0.25 µg/mL (≈ 0.251 µM) | 0.25 (≈ 0.251 µM) | 0.12 µg/mL (≈ 0.12 µM)
10 | COC1C=COC2(C)Oc3c(C)c(O)c4c(O)c(c(C=NN5CCN(Cc6cc(C)no6)CC5)c(O)c4c3C2=O)NC(=O)C(C)=CC=CC(C)C(O)C(C)C(O)C(C)C(OC(C)=O)C1C (stereo not drawn) [Compound 10] | ≦0.03 μg/mL | ≦0.03 μg/mL | 0.06 (≈ 0.0664 µM) | ≦0.03 μg/mL
11 | COC1C=COC2(C)Oc3c(C)c(O)c4c(O)c(c(C=NN5CCN(Cc6cc(CO)no6)CC5)c(O)c4c3C2=O)NC(=O)C(C)=CC=CC(C)C(O)C(C)C(O)C(C)C(OC(C)=O)C1C (stereo not drawn) [Compound 11] | ≦0.03 μg/mL | 0.06 µg/mL (≈ 0.0652 µM) | 0.25 (≈ 0.272 µM) | ≦0.03 μg/mL
12 | COC1C=COC2(C)Oc3c(C)c(O)c4c(O)c(c(C=NN5CCN(Cc6cc(CN(C)C)no6)CC5)c(O)c4c3C2=O)NC(=O)C(C)=CC=CC(C)C(O)C(C)C(O)C(C)C(OC(C)=O)C1C (stereo not drawn) [Compound 12] | ≦0.03 μg/mL | 0.06 µg/mL (≈ 0.0634 µM) | 0.12 (≈ 0.127 µM) | ≦0.03 μg/mL
13 | COC1C=COC2(C)Oc3c(C)c(O)c4c(O)c(c(C=NN5CCN(Cc6cc(-c7ccccn7)no6)CC5)c(O)c4c3C2=O)NC(=O)C(C)=CC=CC(C)C(O)C(C)C(O)C(C)C(OC(C)=O)C1C (stereo not drawn) [Compound 13] | ≦0.03 μg/mL | ≦0.03 μg/mL | 0.06 (≈ 0.062 µM) | ≦0.03 μg/mL
14 | COC1C=COC2(C)Oc3c(C)c(O)c4c(O)c(c(C=NN5CCN(Cc6cc(-c7cccnc7)no6)CC5)c(O)c4c3C2=O)NC(=O)C(C)=CC=CC(C)C(O)C(C)C(O)C(C)C(OC(C)=O)C1C (stereo not drawn) [Compound 14] | ≦0.03 μg/mL | ≦0.03 μg/mL | 0.06 (≈ 0.062 µM) | ≦0.03 μg/mL
15 | COC1C=COC2(C)Oc3c(C)c(O)c4c(O)c(c(C=NN5CCN(Cc6cc(-c7ccncc7)no6)CC5)c(O)c4c3C2=O)NC(=O)C(C)=CC=CC(C)C(O)C(C)C(O)C(C)C(OC(C)=O)C1C (stereo not drawn) [Compound 15] | ≦0.03 μg/mL | ≦0.03 μg/mL | 0.06 (≈ 0.062 µM) | ≦0.03 μg/mL
16 | COC1C=COC2(C)Oc3c(C)c(O)c4c(O)c(c(C=NN5CCN(Cc6cc(-c7ccc(NC(C)=O)cc7)no6)CC5)c(O)c4c3C2=O)NC(=O)C(C)=CC=CC(C)C(O)C(C)C(O)C(C)C(OC(C)=O)C1C (stereo not drawn) [Compound 16] | ≦0.03 μg/mL | 0.06 µg/mL (≈ 0.0586 µM) | 0.12 (≈ 0.117 µM) | 0.06 µg/mL (≈ 0.0586 µM)
17 | COC1C=COC2(C)Oc3c(C)c(O)c4c(O)c(c(C=NN5CCN(Cc6cc(-c7ccc(OCCCN(C)C)cc7)no6)CC5)c(O)c4c3C2=O)NC(=O)C(C)=CC=CC(C)C(O)C(C)C(O)C(C)C(OC(C)=O)C1C (stereo not drawn) [Compound 17] | 0.12 µg/mL (≈ 0.112 µM) | 0.12 µg/mL (≈ 0.112 µM) | 0.25 (≈ 0.234 µM) | 0.12 µg/mL (≈ 0.112 µM)
18 | COC(=O)c1c(-c2ccc(Cl)cc2)noc1CN1CCN(N=Cc2c3c(O)c4c(O)c(C)c5c(c4c2O)C(=O)C(C)(OC=CC(OC)C(C)C(OC(C)=O)C(C)C(O)C(C)C(O)C(C)C=CC=C(C)C(=O)N3)O5)CC1 (stereo not drawn) [Compound 18] | 0.5 µg/mL (≈ 0.472 µM) | 1 µg/mL (≈ 0.945 µM) | 1 (≈ 0.945 µM) | 0.5 µg/mL (≈ 0.472 µM)
19 | COC1C=COC2(C)Oc3c(C)c(O)c4c(O)c(c(C=NN5CCN(Cc6onc(-c7ccc(Cl)cc7)c6C(=O)O)CC5)c(O)c4c3C2=O)NC(=O)C(C)=CC=CC(C)C(O)C(C)C(O)C(C)C(OC(C)=O)C1C (stereo not drawn) [Compound 19] | 0.5 µg/mL (≈ 0.479 µM) | 1 µg/mL (≈ 0.957 µM) | 4 (≈ 3.83 µM) | 0.5 µg/mL (≈ 0.479 µM)
20 | COC1C=COC2(C)Oc3c(C)c(O)c4c(O)c(c(C=NN5CCN(Cc6ccc(-c7ccccc7)s6)CC5)c(O)c4c3C2=O)NC(=O)C(C)=CC=CC(C)C(O)C(C)C(O)C(C)C(OC(C)=O)C1C (stereo not drawn) [Compound 20] | 2 µg/mL (≈ 2.04 µM) | 2 µg/mL (≈ 2.04 µM) | 2 (≈ 2.04 µM) | 1 µg/mL (≈ 1.02 µM)
21 | COC1C=COC2(C)Oc3c(C)c(O)c4c(O)c(c(C=NN5CCN(Cc6ccc(-c7ccc(Cl)cc7)s6)CC5)c(O)c4c3C2=O)NC(=O)C(C)=CC=CC(C)C(O)C(C)C(O)C(C)C(OC(C)=O)C1C (stereo not drawn) [Compound 21] | 2 µg/mL (≈ 1.97 µM) | 2 µg/mL (≈ 1.97 µM) | 2 (≈ 1.97 µM) | 2 µg/mL (≈ 1.97 µM)
22 | COC1C=COC2(C)Oc3c(C)c(O)c4c(O)c(c(C=NN5CCN(Cc6ccc(-c7ccccc7Cl)o6)CC5)c(O)c4c3C2=O)NC(=O)C(C)=CC=CC(C)C(O)C(C)C(O)C(C)C(OC(C)=O)C1C (stereo not drawn) [Compound 22] | 0.25 µg/mL (≈ 0.25 µM) | 0.5 µg/mL (≈ 0.5 µM) | 0.5 (≈ 0.5 µM) | 0.5 µg/mL (≈ 0.5 µM)
23 | COC1C=COC2(C)Oc3c(C)c(O)c4c(O)c(c(C=NN5CCN(Cc6ccc(-c7ccc(Cl)cc7)o6)CC5)c(O)c4c3C2=O)NC(=O)C(C)=CC=CC(C)C(O)C(C)C(O)C(C)C(OC(C)=O)C1C (stereo not drawn) [Compound 23] | 0.25 µg/mL (≈ 0.25 µM) | 0.25 µg/mL (≈ 0.25 µM) | 0.5 (≈ 0.5 µM) | 0.25 µg/mL (≈ 0.25 µM)
24 | COC1C=COC2(C)Oc3c(C)c(O)c4c(O)c(c(C=NN5CCN(Cc6cn(-c7ccc(Cl)cc7)nn6)CC5)c(O)c4c3C2=O)NC(=O)C(C)=CC=CC(C)C(O)C(C)C(O)C(C)C(OC(C)=O)C1C (stereo not drawn) [Compound 24] | 0.06 µg/mL (≈ 0.06 µM) | 0.12 µg/mL (≈ 0.12 µM) | 0.12 (≈ 0.12 µM) | ≦0.12 μg/mL
